{
  "source": "paper PMC5766608",
  "about": "“Target engagement imaging of PARP inhibitors in small-cell lung cancer” (Nature Communications, 2018)",
  "key": {"[1]": {"system": "PARP1/2", "assay": "Blocking of PARPi-FL uptake by PARP inhibitors (confocal microscopy, flow cytometry)", "format": "cell-based, human", "conditions": "JHU-LX22 cells; for Blocking of PARPi-FL uptake / target engagement, in words: pretreatment with inhibitor, then PARPi-FL; for Blocking of PARPi-FL uptake: pretreatment with PARP inhibitor 25 min, then PARPi-FL 15 min", "protocol": "(§1) Cells were then treated with fluorescent imaging agent PARPi-FL and either imaged via confocal microscopy or measured via flow cytometry. […] Then, cells were trypsinized, subjected to flow cytometry and analyzed for the relative PARPi-FL fluorescence signal. […] Error bars represent the SD of three independent experiments with three parallels each\nWe conducted confocal laser scanning microscopy to visualize the extent of intracellular blocking of PARPi-FL uptake by different PARPi. […] PARPi-FL was removed and cells were washed in fresh medium for 10 min. Next, cells were treated with 4% Paraformaldehyde (PFA) for 8 min on ice to ensure fixation. […] PARPi-FL intensity was determined by measuring the PARPi-FL fluorescence intensity in all nuclei, which were thresholded using Hoechst staining.\n(§2) After the respective treatment/staining, which is described below for the different experiments, cells were washed in PBS, trypsinized, washed with flow buffer (1% BSA (w/v) in PBS), transferred to 5 mL flow cytometry tubes through the 40 µm cell strainer cap and left on ice until measurement in the flow cytometer (Fortessa II). Raw data were processed in FlowJo software in order to calculate PARPi-FL uptake per cell. Dead cells were excluded by eliminating DAPI positive cells from the analysis (Supplementary Fig. 8). Cell clumps and debris were eliminated using the corresponding gates (forward and side scatter) for the unstained cell population. PARPi-FL fluorescence was imaged in the FITC channel against side scatter (area).\nControls (cells incubated with medium instead of a PARP inhibitor) served as reference value and their PARPi-FL signal was defined as 100%.\nTo quantify the extent of blocking of PARPi-FL uptake by different PARPi, we quantified the intracellular PARPi-FL uptake in JHU-LX22 cells after incubation with PARP inhibitors."}, "[2]": {"molecular_target": "T1, PARP1 (Homo sapiens, UniProt P09874)", "T1 construct": "purchased BPS Bioscience, San Diego, CA", "T1 sequence (P09874 whole entry)": "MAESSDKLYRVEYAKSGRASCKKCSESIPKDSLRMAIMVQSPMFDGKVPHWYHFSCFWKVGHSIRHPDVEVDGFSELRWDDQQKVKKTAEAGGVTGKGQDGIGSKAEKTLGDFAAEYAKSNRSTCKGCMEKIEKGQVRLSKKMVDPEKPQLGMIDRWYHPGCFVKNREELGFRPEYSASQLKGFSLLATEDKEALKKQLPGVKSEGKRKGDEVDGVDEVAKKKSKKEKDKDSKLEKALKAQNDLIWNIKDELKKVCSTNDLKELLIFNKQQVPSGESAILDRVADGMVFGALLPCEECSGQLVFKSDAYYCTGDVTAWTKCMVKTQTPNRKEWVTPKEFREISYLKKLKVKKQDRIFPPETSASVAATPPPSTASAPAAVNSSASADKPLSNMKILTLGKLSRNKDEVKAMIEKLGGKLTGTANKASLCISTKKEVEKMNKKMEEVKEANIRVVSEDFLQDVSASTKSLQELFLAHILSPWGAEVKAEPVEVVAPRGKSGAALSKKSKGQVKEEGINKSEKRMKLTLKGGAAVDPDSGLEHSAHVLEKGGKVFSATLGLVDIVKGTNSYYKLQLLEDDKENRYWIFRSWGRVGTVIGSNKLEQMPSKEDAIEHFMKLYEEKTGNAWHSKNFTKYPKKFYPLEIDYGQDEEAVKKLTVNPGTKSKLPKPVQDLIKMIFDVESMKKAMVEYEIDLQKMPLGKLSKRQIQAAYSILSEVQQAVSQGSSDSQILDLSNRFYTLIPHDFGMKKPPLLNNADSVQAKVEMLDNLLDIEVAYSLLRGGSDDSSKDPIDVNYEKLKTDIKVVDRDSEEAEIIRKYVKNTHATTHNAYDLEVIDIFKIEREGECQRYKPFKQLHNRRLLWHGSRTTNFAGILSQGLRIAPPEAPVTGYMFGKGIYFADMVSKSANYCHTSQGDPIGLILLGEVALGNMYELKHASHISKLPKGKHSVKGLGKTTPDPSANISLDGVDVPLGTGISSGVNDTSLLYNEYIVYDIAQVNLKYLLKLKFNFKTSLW", "conditions": "cited from earlier work"}, "[3]": {"system": "PARP1/2", "assay": "In vitro binding kinetics by recovery of PARPi-FL binding (flow cytometry)", "format": "cell-based, human", "protocol": "as §1, §2\nWe furthermore determined the duration of PARPi binding to their target site. […] Then, cells were subjected to flow cytometry as described above. […] We determined the duration of binding of the PARPi indirectly by calculating the recovery of PARP-FL binding with increasing times between PARPi and PARPi-FL treatment. Decay curves were calculated with Prism using two phase decay least squares regression."}, "[4]": {"system": "JHU-LX22 cells", "assay": "Cytotoxicity, Alamar Blue assay", "format": "cell-based, human", "conditions": "24-96 h", "protocol": "[…]. Cells were plated in 96-well plates (black, clear-bottom, Corning Incorporated) at a density of 5,000 cells/well and allowed them to attach for 24 h. All compounds were prepared as 10 mM stock solutions in DMSO and further diluted in media. Cells were treated with 0, 2, 5, and 10 µM (final solutions containing 1% DMSO) of each compound for 24, 48, 72 and 96 h. Then, media was removed and Alamar Blue reagent was added to each well. Plates were incubated at 37 °C for 4 h under protection from direct light. Fluorescence was read (bottom-read mode) using an excitation wavelength of 570 nm and an emission wavelength of 585 nm on a SpectraMax M5 microplate reader (Molecular Devices, Sunnyvale, CA, USA). The average reading values were analyzed by subtracting the background readings (wells with Alamar Blue but without cells) and compared against the untreated controls of each plate (defined as 100% viability) to determine the percentage of living cells. The experiment was carried out in three biological replicates with four parallels of each compound.\nSupplementary Figure 9 | In vitro toxicity of the tested PARP inhibitors and imaging tracers on JHU-LX22 cells. (a) Assessment of viable cell population during flow cytometry after a 2 hour incubation time of several PARP inhibitors at concentrations between 0 and 5 µM. (b) Cell viability determination using Alamar Blue assays. Cells were incubated with 0, 0.2, 2, 5 or 10 µM of each compound for 24, 48, 72 or 96 h and cell viability was assessed using the Alamar Blue assay. (c) IC values derived from Alamar Blue assays at 72 h and 96 h.\nViability data represent means from three independent experiments, each with four parallels of each sample. Error bars represent the standard error (SEM). […]"}, "[5]": {"molecular_target": "T2, PARP2 (Homo sapiens, UniProt Q9UGN5)", "T2 construct": "purchased BPS Bioscience, San Diego, CA", "T2 sequence (Q9UGN5 whole entry)": "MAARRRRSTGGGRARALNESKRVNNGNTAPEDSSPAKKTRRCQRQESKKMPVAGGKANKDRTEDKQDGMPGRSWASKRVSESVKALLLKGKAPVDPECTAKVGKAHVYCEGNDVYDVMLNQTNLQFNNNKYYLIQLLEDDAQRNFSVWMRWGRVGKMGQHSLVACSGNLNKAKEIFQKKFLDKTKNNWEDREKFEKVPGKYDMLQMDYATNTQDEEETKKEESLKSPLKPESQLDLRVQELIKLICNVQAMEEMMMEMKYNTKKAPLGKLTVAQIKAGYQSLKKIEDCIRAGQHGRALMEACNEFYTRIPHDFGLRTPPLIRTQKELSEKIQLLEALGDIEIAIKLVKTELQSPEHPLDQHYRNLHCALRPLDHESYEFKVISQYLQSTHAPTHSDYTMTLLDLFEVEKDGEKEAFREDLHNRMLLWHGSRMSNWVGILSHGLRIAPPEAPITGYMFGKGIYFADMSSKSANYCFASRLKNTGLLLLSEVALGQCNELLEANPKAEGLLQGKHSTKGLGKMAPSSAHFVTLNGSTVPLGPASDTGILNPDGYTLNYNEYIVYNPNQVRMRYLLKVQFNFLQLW", "assay": "PARP2 IC50 assay (BPS Bioscience, Strep-HRP, histone substrate)", "format": "biochemical", "conditions": "footnote a: see Supplementary Fig. 2", "protocol": "Assays were performed by BPS Bioscience, San Diego, CA. […] Data was reported by BPS a`s % enzyme activity curve from 0.03 nM or 0.1 nM to 1000 nM."}, "[6]": {"system": "JHU-LX48 SCLC PDX", "assay": "PET/CT imaging agent kinetics", "format": "in vivo, NSG mice", "conditions": "i.v., JHU-LX48 PDX mice", "description": "Error bars represent the SD\nDifferent mice were used for each group to eliminate, as much as possible, the influence of anesthesia on tracer distribution."}, "[7]": {"system": "JHU-LX48 SCLC PDX", "assay": "PET/CT tumor size study", "procedure": "PET/CT imaging was performed once a week over 8 consecutive weeks starting one week after xenografting. a Representative MIPs from the same mouse over 8 weeks. b Quantification (n = 6) of mean uptake (top) and max uptake (bottom) of the PET images grouped by tumor size.\n(§3) All PET/CT images (n = 90) were acquired on an Inveon PET/CT (Siemens) and reconstructed scans were analyzed using the Inveon Research Workplace Software (Siemens). To acquire PET/CT images, animals were anesthetized with 2% isoflurane and positioned on the scanner bed. […] PET data were collected for 5–10 min, followed by CT.\nThis was continued for 8 consecutive weeks until mice were sacrificed to avoid surpassing a tumor size limit of 1500 mm^3. Activity concentration was quantified by averaging the mean or max values taken from VOIs drawn over the entire tumor as it appeared in the CT and portrayed as mean and max %ID/g ± SD."}, "[8]": {"system": "PARylation in LX22 cells", "assay": "PARylation inhibition assay (western blot for PAR)", "format": "cell-based, human", "conditions": "0.1 µM, 30 min incubation", "protocol": "Whole cell lysates were prepared by incubating cells with RIPA Buffer with Triton X (BP-140, Boston BioProducts) containing Protease Inhibitor (Complete EASYpacks, Sigma-Aldrich) for 30 min on ice, followed by 30 min centrifugation at 10,000 × g for 30 min at 4 °C. Protein concentration of lysates was determined using a Bicinchoninic acid (BCA) assay kit (#23225, Pierce) and following the manufacturers instructions. SDS gel electrophoresis and immunoblotting were carried out following standard procedures. Signal detection was carried out using chemiluminescent substrate (#34077, Thermo Scientific). Densitometric analysis of western blots was carried out using ImageJ (NIH). To detect PAR, we used a rabbit polyclonal anti-PAR polymer antibody (1:1000 dilution, #4336-BPC-100, Trevigen) followed by a goat anti-rabbit IgG-HRP secondary antibody (1:10,000 dilution, sc-2004, SantaCruz). B-actin was used as loading control (1:1000 dilution, A3854, Sigma-Aldrich) and was stained after stripping the blot for 30 min at room temperature using stripping buffer (Amresco).\nSupplementary Figure 3 | PARylation inhibition assay.\nPARPi-FL and [18F]PARPi quantify PARP inhibition, we compared their ability to inhibit PARylation\nin comparison with olaparib.\ninhibition. At 1 µM, the PAR signal for all three compounds is nearly completely eliminated."}, "[9]": {"system": "PARP1/2", "conditions": "for Blocking of [18F]PARPi tumor uptake (target engagement): 30 min before tracer, PET 2 h later", "description": "Fig. 7 Variable dose blocking.\nThe control group received no therapeutic inhibitor."}, "[10]": {"system": "PARP1/2", "conditions": "olaparib 50 mg/kg, talazoparib 0.3 mg/kg i.v., 60 min between drug and tracer", "procedure": "as §3\nActivity concentration was quantified by averaging the mean values taken from VOIs drawn over the entire tumor as it appeared in the CT and portrayed as a mean %ID/g ± SD."}, "[11]": {"system": "PARP1/2", "assay": "Ex vivo autoradiography of target engagement", "conditions": "olaparib 50 mg/kg, talazoparib 0.3 mg/kg, 30 min prior to tracer; tumor collected 2 h post tracer", "source_text": "Sections from 3 different tumor areas from each tumor (n = 3/group) were exposed to an autoradiography plate overnight and read the next day. ImageJ was used to quantify the signal intensity of each tissue. Adjacent sections were used for PARP1 IHC and H&E staining to confirm tissue identity and PARP1 expression."}, "[12]": {"conditions": "JHU-LX22 cells, 0.2 µM inhibitor 25 min, washed, 0-48 h post-incubation, two phase decay fit"}},
  "note": "Like-named read-outs stand apart in the source and are kept apart here.",
  "data": [
    {"smiles": "NC(=O)c1ccc(I)c([N+](=O)[O-])c1", "note": "[iniparib]", "values": [
      {"measurement": "Blocking of PARPi-FL uptake / target engagement, in words", "setting": "[1]", "value": "failed to reduce PARPi-FL uptake"}
    ]},
    {"smiles": "CN(C)Cc1ccc(-c2nc3cccc4c3n2CCNC4=O)cc1", "note": "[AG14361]", "values": [
      {"measurement": "Ki", "setting": "[2]", "value": "< 5", "unit": "nM"}
    ]},
    {"smiles": "NC(=O)c1cccc2cn(-c3ccc([C@@H]4CCCNC4)cc3)nc12", "note": "[Niraparib, niraparib]", "values": [
      {"measurement": "Blocking of PARPi-FL uptake", "setting": "[1]", "value": "more than 50%"},
      {"measurement": "Retention on PARP1/2 binding sites, in words", "setting": "[3]; [12]", "value": "faster release kinetics"},
      {"measurement": "Effect on JHU-LX22 cell viability, in words", "setting": "[4]", "value": "much less cell killing"}
    ]},
    {"smiles": "O=C(c1ccc([18F])cc1)N1CCN(C(=O)c2cc(Cc3n[nH]c(=O)c4ccccc34)ccc2F)CC1", "note": "[[^18F]PARPi]", "values": [
      {"measurement": "IC50", "setting": "[5]", "value": 0.21, "unit": "nM"},
      {"measurement": "Muscle uptake (PET)", "setting": "[6]; 30 min post injection", "value": "0.90 ± 0.06", "unit": "%ID/g"},
      {"measurement": "Tumor uptake (PET)", "setting": "[6]; 30 min post injection", "value": "1.34 ± 0.28", "unit": "%ID/g"},
      {"measurement": "Muscle uptake (PET)", "setting": "[6]; 60 min post injection", "value": "0.44 ± 0.03", "unit": "%ID/g"},
      {"measurement": "Tumor uptake (PET)", "setting": "[6]; 60 min post injection", "value": "0.94 ± 0.04", "unit": "%ID/g"},
      {"measurement": "Muscle uptake (PET)", "setting": "[6]; 120 min post injection", "value": "0.12 ± 0.02", "unit": "%ID/g"},
      {"measurement": "Tumor uptake (PET)", "setting": "[6]; 120 min post injection", "value": "0.87 ± 0.21", "unit": "%ID/g"},
      {"measurement": "Maximum tumor uptake", "setting": "[7]; tumor sizes 50-100 mm^3", "value": "2.62 ± 0.27", "unit": "%ID/g"},
      {"measurement": "Maximum tumor uptake", "setting": "[7]; tumor sizes 50-1300 mm^3", "value": "2.85 ± 0.49", "unit": "%ID/g"},
      {"measurement": "Mean tumor uptake, highest single value", "setting": "[7]; tumor sizes 50-1300 mm^3", "value": 1.24, "unit": "%ID/g"},
      {"measurement": "Mean tumor uptake, lowest single value", "setting": "[7]; tumor sizes 50-1300 mm^3", "value": 0.47, "unit": "%ID/g"},
      {"measurement": "Mean tumor uptake", "setting": "[7]; tumor sizes 50-1300 mm^3, 2 h post injection", "value": "0.86 ± 0.22", "unit": "%ID/g"},
      {"measurement": "Maximum tumor uptake", "setting": "[7]; tumor sizes 800-1300 mm^3", "value": "3.06 ± 0.61", "unit": "%ID/g"},
      {"measurement": "Mean tumor uptake", "setting": "[7]; tumor sizes between 100 and 200 mm^3", "value": "0.97 ± 0.18", "unit": "%ID/g"},
      {"measurement": "Mean tumor uptake", "setting": "[7]; tumor sizes between 400 and 800 mm^3", "value": "0.71 ± 0.22", "unit": "%ID/g"}
    ]},
    {"smiles": "CNCc1ccc(-c2[nH]c3cc(F)cc4c3c2CCNC4=O)cc1", "note": "[Rucaparib, rucaparib]", "values": [
      {"measurement": "Blocking of PARPi-FL uptake / target engagement, in words", "setting": "[1]", "value": "most complete target engagement"},
      {"measurement": "Retention on PARP1/2 binding sites, in words", "setting": "[3]; [12]", "value": "longest retention"}
    ]},
    {"smiles": "C[C@]1(c2nc3c(C(N)=O)cccc3[nH]2)CCCN1", "note": "[Veliparib, veliparib]", "values": [
      {"measurement": "Blocking of PARPi-FL uptake", "setting": "[1]", "value": "more than 50%"},
      {"measurement": "Retention on PARP1/2 binding sites, in words", "setting": "[3]", "value": "faster release kinetics"},
      {"measurement": "Effect on JHU-LX22 cell viability, in words", "setting": "[4]", "value": "much less cell killing"}
    ]},
    {"smiles": "O=C(c1cc(Cc2n[nH]c(=O)c3ccccc23)ccc1F)N1CCN(C(=O)C2CC2)CC1", "note": "[Olaparib, olaparib]", "values": [
      {"measurement": "Blocking of PARPi-FL uptake / target engagement, in words", "setting": "[1]", "value": "most complete target engagement"},
      {"measurement": "Inhibition of PARylation (PAR signal)", "setting": "[8]", "value": "nearly complete inhibition"},
      {"measurement": "Blocking of [18F]PARPi tumor uptake (target engagement)", "setting": "[9]; 5 mg/kg i.v.", "value": 59, "unit": "%"},
      {"measurement": "Blocking of [18F]PARPi tumor uptake (target engagement)", "setting": "[9]; 15 mg/kg i.v.", "value": 75, "unit": "%"},
      {"measurement": "Blocking of [18F]PARPi tumor uptake (target engagement)", "setting": "[9]; 50 mg/kg i.v.", "value": 78, "unit": "%"},
      {"measurement": "50% blocking dose", "setting": "[9]; single-phase decay curve fit, JHU-LX48 PDX tumor", "value": 3.17, "unit": "mg/kg"},
      {"measurement": "Initial blocking (t = 1 h)", "setting": "[10]", "value": 74, "unit": "%"},
      {"measurement": "Initial blocking (t = 1 h)", "setting": "[10]; listed as olaparib", "value": 74, "unit": "%"},
      {"measurement": "[18F]PARPi tumor uptake blocked (autoradiography)", "setting": "[11]", "value": 96, "unit": "%"}
    ]}
  ]
}
